Results from ChEMBL document CHEMBL5518188, “Discovery of 4-amino-1,6-dihydro-7H-pyrrolo[2,3-d]pyridazin-7-one derivatives as potential receptor-interacting serine/threonine-protein kinase 1 (RIPK1) inhibitors” (Eur J Med Chem, 2024).
Calls of active or inactive are those of the source. No cut-off for these calls is given here.

Experiments:
HT-29 [1] = test: Anti-necroptosis activity against TSZ-induced human HT-29 cells; format: functional, cell-based
[2] = biological target: T1, Discoidin domain-containing receptor 2 (Homo sapiens) (UniProt Q16832); test: Inhibition of DDR2 (unknown origin)
T1 sequence (whole entry): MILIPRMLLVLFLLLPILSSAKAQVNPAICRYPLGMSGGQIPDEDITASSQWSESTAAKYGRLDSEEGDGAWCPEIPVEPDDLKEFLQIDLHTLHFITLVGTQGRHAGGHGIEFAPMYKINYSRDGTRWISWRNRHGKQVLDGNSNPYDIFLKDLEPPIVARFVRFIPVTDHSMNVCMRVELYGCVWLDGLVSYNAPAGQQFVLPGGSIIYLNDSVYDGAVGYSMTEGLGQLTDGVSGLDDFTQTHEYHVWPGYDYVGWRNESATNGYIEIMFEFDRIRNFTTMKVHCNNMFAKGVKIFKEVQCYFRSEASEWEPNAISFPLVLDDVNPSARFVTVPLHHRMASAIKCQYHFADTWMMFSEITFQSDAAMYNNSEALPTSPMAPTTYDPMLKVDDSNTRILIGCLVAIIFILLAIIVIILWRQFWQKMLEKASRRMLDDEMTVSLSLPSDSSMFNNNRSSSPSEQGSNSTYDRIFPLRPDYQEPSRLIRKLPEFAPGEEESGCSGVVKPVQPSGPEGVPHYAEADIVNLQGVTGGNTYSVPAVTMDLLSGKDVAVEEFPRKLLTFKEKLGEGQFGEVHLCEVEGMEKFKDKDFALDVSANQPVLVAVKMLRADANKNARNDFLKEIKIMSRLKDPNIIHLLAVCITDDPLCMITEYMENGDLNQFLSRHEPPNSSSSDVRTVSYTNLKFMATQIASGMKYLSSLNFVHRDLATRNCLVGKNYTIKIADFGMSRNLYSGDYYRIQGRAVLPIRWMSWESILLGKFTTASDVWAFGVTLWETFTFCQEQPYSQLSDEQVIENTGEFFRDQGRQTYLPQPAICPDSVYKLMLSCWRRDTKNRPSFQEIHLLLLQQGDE

Mus musculus = test: In vivo anti-necrotptic activity in po dosed SIRS mouse model assessed as reduction in IL-6 level measured at 4 hrs; format: functional, organism-based; conditions: dose 2.5-10 mg/kg
[3] = biological target: NT-3 growth factor receptor (Homo sapiens) (UniProt Q16288); test: Inhibition of TRKC (unknown origin)
[4] = Clearance in BALB/c mouse at 10 mg/kg, iv; format: ADME, organism-based; conditions: in vivo
[5] = biological target: T2, Receptor-interacting serine/threonine-protein kinase 1 (Homo sapiens) (UniProt Q13546); conditions: HT-29, dose 300.0 nM, time <= 6.0 hrs, TDE = time-dependent effect
T2 sequence (whole entry): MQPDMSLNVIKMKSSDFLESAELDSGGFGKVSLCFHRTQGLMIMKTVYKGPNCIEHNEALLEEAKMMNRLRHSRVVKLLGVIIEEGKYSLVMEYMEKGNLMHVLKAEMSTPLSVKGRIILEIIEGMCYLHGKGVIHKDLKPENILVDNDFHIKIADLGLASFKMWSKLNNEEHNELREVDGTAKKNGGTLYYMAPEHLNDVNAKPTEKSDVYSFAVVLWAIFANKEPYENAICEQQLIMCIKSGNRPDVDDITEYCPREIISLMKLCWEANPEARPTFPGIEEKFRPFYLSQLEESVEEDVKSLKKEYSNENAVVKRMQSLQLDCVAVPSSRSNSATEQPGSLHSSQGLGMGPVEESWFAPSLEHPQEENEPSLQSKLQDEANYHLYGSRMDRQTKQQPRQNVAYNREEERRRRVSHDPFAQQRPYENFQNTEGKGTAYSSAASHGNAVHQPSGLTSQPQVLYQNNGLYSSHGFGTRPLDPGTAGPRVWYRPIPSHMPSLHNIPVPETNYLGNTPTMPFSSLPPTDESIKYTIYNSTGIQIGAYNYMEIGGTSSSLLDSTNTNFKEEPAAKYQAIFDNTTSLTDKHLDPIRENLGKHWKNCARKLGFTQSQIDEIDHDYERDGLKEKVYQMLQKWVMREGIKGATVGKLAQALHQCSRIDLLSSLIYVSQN
Description: Inhibition of RIPK1 phosphorylation in TSZ-induced human HT-29 cells at 300 nM by Western blot analysis

[6] = biological target: Vascular endothelial growth factor receptor 2 (Homo sapiens) (UniProt P35968); test: Inhibition of KDR (unknown origin)
[7] = AUC (0 to t) in BALB/c mouse at 10 mg/kg, iv; format: ADME, organism-based; conditions: BALB/c, in vivo
[8] = Cmax in BALB/c mouse at 10 mg/kg, po; format: ADME, organism-based; conditions: in vivo
[9] = biological target: Angiopoietin-1 receptor (Homo sapiens) (UniProt Q02763); test: Inhibition of Tie2 (unknown origin)
[10] = Selectivity ratio of Kd for binding affinity to RIPK1 (unknown origin) assessed as dissociation constant to Kd for binding affinity to RIPK3 (unknown origin) assessed as dissociation constant
[11] = Oral bioavailability in BALB/c mouse at 10 mg/kg; format: ADME, organism-based; conditions: BALB/c, in vivo
[12] = biological target: Tyrosine-protein kinase Lyn (Homo sapiens) (UniProt P07948); test: Inhibition of LYN (unknown origin)
[13] = Tmax in BALB/c mouse at 10 mg/kg, po; format: ADME, organism-based; conditions: in vivo
[14] = biological target: Eukaryotic translation initiation factor 2-alpha kinase 1 (Homo sapiens) (UniProt Q9BQI3); test: Inhibition of HRI (unknown origin)
[15] = Apparent volume of distribution in BALB/c mouse at 10 mg/kg, iv; format: ADME, organism-based; conditions: in vivo, read-out: Vz
U-937 = test: Anti-necroptosis activity against TSZ-induced human U-937 cells; format: functional, cell-based
[16] = biological target: High affinity nerve growth factor receptor (Homo sapiens) (UniProt P04629); test: Inhibition of TRKA (unknown origin)
[17] = biological target: Vascular endothelial growth factor receptor 1 (Homo sapiens) (UniProt P17948); test: Inhibition of FLT1 (unknown origin)
[18] = Half life in BALB/c mouse at 10 mg/kg, iv; format: ADME, organism-based; conditions: in vivo
[19] = biological target: Vascular endothelial growth factor receptor 3 (Homo sapiens) (UniProt P35916); test: Inhibition of FLT4 (unknown origin)
[20] = Half life in BALB/c mouse at 10 mg/kg, po; format: ADME, organism-based; conditions: BALB/c, in vivo
L929 = test: Anti-necroptosis activity against TSZ-induced mouse L929 cells; format: functional, cell-based
[21] = Tmax in BALB/c mouse at 10 mg/kg, iv; format: ADME, organism-based; conditions: in vivo
HT-29 [22] = test: Anti-necroptosis activity against TSZ-induced human HT-29 cells by microscopic analysis; format: functional, cell-based
[23] = Metabolic stability in cryopreserved human liver microsome assessed as half life; format: ADME; conditions: cryopreserved liver microsomes
[24] = biological target: Receptor-interacting serine/threonine-protein kinase 3 (Homo sapiens, UniProt Q9Y572); conditions: HT-29, dose 3.0 nM, time 6.0 hrs
[25] = biological target: T3, Receptor-interacting serine/threonine-protein kinase 1 (Homo sapiens, UniProt Q13546); test: Binding affinity to RIPK1 (unknown origin) assessed as dissociation constant
T3 sequence (Q13546 whole entry): T2 sequence (whole entry)

Sequence of Vascular endothelial growth factor receptor 3 (Homo sapiens) (P35916 whole entry): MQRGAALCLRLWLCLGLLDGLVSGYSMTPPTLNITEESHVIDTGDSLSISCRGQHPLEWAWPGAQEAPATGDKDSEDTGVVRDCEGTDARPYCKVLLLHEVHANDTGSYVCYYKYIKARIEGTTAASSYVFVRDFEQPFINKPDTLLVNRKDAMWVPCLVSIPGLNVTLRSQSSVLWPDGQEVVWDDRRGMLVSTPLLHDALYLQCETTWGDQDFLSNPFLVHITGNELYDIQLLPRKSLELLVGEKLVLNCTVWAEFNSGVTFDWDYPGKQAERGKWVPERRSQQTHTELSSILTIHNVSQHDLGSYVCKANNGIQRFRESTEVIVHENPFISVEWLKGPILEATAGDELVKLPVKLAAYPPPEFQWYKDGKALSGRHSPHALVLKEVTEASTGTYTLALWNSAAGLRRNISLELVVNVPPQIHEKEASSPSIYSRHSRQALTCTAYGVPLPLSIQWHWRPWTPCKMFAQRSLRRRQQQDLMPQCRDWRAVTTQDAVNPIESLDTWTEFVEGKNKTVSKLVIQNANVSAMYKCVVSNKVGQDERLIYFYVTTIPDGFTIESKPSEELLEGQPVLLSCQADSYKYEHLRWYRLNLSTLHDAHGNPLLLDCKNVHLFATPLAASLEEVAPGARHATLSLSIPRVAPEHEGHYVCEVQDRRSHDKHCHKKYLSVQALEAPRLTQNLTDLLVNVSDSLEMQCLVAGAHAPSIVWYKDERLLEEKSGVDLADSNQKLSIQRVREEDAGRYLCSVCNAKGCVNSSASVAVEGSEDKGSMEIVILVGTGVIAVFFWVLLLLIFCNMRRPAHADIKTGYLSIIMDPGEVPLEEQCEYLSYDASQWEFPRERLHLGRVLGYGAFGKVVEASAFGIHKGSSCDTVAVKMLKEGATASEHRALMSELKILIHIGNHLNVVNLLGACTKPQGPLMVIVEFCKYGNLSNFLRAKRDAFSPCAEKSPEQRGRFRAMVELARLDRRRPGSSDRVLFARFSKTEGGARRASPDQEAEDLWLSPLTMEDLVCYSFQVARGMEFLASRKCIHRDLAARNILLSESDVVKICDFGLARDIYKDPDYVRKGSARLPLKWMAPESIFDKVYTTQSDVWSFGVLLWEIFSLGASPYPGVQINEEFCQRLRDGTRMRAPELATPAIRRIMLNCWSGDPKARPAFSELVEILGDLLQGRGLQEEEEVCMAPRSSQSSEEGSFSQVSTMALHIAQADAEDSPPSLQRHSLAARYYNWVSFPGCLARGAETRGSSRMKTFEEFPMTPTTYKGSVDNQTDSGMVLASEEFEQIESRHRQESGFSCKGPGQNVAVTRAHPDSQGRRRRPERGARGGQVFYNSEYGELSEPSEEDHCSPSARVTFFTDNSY
Sequence of Vascular endothelial growth factor receptor 2 (Homo sapiens) (P35968 whole entry): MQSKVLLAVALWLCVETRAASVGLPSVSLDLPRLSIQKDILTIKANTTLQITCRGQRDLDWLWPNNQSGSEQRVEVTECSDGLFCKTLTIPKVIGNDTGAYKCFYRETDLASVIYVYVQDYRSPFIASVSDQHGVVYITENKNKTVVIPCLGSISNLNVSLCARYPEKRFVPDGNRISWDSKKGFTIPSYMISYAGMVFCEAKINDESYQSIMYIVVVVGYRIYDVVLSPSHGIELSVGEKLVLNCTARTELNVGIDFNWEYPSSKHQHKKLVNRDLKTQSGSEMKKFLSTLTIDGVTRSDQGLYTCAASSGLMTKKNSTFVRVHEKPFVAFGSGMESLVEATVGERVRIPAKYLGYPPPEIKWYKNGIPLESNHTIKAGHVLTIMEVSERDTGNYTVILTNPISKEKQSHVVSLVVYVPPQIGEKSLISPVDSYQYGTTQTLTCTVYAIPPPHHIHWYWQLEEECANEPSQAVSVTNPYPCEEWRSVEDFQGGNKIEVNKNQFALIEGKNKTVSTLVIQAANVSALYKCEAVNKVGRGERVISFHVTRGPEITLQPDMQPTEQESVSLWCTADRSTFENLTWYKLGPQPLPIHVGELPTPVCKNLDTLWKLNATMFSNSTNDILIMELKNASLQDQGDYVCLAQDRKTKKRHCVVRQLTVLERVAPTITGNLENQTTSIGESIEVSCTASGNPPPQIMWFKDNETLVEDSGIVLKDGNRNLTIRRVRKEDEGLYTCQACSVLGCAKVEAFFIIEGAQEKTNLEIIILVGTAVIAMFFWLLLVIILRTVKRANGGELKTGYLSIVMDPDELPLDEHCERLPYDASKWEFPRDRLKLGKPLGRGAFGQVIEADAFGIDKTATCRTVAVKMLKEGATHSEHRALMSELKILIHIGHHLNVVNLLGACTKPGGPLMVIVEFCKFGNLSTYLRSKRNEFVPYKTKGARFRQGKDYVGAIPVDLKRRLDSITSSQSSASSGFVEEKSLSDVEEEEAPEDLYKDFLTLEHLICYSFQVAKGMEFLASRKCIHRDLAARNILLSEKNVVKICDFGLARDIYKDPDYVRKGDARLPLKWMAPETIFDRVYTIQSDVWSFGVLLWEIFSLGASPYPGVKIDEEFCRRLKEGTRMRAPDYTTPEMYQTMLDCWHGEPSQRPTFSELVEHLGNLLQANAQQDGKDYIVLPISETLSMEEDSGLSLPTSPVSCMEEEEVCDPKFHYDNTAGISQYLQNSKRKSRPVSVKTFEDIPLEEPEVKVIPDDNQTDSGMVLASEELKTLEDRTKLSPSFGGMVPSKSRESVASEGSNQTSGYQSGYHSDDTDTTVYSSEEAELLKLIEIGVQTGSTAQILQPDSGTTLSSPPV
Sequence of Vascular endothelial growth factor receptor 1 (Homo sapiens) (P17948 whole entry): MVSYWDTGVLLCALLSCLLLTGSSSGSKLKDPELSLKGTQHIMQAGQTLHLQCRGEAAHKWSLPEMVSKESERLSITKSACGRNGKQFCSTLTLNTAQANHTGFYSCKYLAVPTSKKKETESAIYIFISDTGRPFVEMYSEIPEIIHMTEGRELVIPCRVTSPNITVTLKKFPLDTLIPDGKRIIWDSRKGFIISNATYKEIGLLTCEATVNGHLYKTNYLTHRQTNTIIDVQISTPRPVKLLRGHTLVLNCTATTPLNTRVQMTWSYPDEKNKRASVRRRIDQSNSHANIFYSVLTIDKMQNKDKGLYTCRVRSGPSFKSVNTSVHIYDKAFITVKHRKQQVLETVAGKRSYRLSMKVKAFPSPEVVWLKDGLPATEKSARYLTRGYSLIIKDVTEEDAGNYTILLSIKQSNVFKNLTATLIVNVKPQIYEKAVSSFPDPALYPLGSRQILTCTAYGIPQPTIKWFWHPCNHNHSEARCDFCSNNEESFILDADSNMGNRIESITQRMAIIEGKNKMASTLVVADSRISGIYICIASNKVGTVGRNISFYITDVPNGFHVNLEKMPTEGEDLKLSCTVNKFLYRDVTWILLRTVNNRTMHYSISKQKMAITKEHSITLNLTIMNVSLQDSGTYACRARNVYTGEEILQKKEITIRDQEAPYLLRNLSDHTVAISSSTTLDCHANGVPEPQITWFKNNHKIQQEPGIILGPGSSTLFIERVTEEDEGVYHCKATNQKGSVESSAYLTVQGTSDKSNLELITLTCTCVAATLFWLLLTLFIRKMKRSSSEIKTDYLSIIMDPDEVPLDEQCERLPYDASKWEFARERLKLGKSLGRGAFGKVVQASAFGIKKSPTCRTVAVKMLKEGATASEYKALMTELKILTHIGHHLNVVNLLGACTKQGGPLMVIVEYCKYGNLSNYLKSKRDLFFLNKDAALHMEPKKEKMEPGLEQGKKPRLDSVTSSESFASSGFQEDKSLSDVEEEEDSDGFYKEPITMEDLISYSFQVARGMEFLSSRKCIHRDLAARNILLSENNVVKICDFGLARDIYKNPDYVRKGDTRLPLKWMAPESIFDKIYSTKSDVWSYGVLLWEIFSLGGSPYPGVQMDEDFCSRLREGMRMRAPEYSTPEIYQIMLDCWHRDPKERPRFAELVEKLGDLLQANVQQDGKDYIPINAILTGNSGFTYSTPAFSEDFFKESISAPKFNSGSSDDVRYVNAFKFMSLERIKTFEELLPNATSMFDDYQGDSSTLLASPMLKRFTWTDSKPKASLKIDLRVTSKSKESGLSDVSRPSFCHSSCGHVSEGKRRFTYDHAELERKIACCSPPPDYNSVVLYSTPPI
Sequence of Receptor-interacting serine/threonine-protein kinase 3 (Q9Y572 whole entry, looked up): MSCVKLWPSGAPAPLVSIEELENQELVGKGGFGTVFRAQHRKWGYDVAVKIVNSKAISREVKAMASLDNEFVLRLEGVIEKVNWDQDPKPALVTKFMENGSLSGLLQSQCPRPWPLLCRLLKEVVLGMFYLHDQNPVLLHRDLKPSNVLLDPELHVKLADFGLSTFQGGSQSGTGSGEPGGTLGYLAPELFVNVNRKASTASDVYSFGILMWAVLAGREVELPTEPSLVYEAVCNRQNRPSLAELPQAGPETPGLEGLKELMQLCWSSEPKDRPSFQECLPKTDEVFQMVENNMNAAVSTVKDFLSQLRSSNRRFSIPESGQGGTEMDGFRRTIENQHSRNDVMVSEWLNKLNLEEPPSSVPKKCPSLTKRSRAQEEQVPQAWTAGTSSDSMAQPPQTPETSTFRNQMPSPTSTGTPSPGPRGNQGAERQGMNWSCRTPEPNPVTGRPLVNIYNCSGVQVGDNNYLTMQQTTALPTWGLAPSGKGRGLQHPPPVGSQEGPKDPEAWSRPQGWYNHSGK
Sequence of Tyrosine-protein kinase Lyn (Homo sapiens) (P07948 2-512 limits assumed): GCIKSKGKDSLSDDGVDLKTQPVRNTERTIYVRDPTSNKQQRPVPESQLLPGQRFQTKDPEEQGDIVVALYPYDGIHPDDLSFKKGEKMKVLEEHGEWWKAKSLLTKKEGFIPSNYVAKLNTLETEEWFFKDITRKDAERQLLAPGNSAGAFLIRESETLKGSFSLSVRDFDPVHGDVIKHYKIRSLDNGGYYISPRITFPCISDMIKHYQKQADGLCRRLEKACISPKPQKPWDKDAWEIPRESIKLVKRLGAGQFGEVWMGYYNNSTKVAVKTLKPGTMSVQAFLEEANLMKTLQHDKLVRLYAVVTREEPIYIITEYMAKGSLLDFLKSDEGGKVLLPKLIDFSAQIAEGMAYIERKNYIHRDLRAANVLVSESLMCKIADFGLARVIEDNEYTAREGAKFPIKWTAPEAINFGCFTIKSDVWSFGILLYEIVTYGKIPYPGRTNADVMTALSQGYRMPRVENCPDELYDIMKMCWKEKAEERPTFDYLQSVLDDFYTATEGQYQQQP

Compound: CC1(Cn2cc(-c3ccc4c(c3)CCN4C(=O)Cc3cccc(OC(F)(F)F)c3)c3c(N)n[nH]c(=O)c32)COC1
- EC50 (HT-29 [1]): 4.58 nM
- inhibition [2]: Active
- Activity (Mus musculus): Dose-Dependent Effect
- inhibition [3]: Active
- clearance [4]: 17.3 mL/min/kg
- inhibition [5]: Tde
- inhibition [6]: Active
- AUC(0-t) [7]: 9640 ng·h/mL
- Cmax [8]: 2700 ng/mL
- inhibition [9]: Active
- Selectivity ratio [10]: 486
- bioavailability [11]: 59.5%
- inhibition [12]: Active
- Tmax [13]: 4.8 min
- inhibition [14]: Active
- Vd [15]: 1.24 L/kg
- EC50 (U-937): 3.09 nM
- inhibition [16]: Active
- inhibition [17]: Active
- half-life [18]: 49.8 min
- inhibition [19]: Active
- half-life [20]: 62.4 min
- EC50 (L929): 1.06 nM
- Tmax [21]: 4.8 min
- Activity (HT-29 [22]): Active
- half-life [23]: 75.3 min
- inhibition [24]: Dose-Dependent Effect
- Kd [25]: 3.5 nM
